What all share (assay type): cell-based
Assay [1] has as its system Ba/F3 cells of EGFR-del19. As to the kind of experiment: Drug sensitivity screening at 100 nM, Ba/F3 EGFR-del19. The following applies: for Relative cell viability (% of DMSO control) in del19 Ba/F3 cells: 100 nM; for viability at 0.1 µM: Mus musculus, BaF3, 72 h, read-out: Relative cell viability (ratio to DMSO control), del19. On the procedure: (§1) After the incubation, cell viability was measured using CellTiter-Glo assay. The relative cell viability was calculated as a ratio of each value to that of the DMSO control.

In assay [2] the test system is Ba/F3 cells of EGFR-T790M/del19. Description: Drug sensitivity screening at 100 nM, Ba/F3 EGFR-T790M/del19. The following applies: for Relative cell viability (% of DMSO control): 100 nM; for viability at 0.1 µM: Mus musculus, BaF3, 72 h, read-out: Relative cell viability (ratio to DMSO control), del19/T790M. On the procedure: as §1
Assay [3] has as its system Ba/F3 cells of EGFR-C797S/T790M/del19. Description: Drug sensitivity screening at 100 nM, Ba/F3 EGFR-C797S/T790M/del19. The following applies: Mus musculus, BaF3, 72 h, 100 nM inhibitor, 72 h, DMSO = 100; mean of three independent experiments (Fig. 1a data). How it is done: as §1
The mark [4] stands for this setting: 100 nM inhibitor, 72 h, DMSO = 100, mean of three independent experiments (Fig. 1a data).

Values joined by “and” are separate entries in the source; they are usually repeats but may differ in a detail not shown here. Identical values can stand only once. Like-named read-outs stand apart in the source and are kept apart here.

On to `C=CCNC1=C2C[C@@H](C)C[C@H](OC)[C@H](O)[C@@H](C)/C=C(\C)[C@H](OC(N)=O)[C@@H](OC)/C=C\C=C(/C)C(=O)NC(=CC1=O)C2=O` [17-AAG], for which the “Relative cell viability (ratio to DMSO control), del19” value in assay [1] (setting [4]) was 54.15 and 54.1494. Besides, the “Relative cell viability (% of DMSO control) in del19 Ba/F3 cells” value in assay [1] (72 h, DMSO = 100, experiment 1) is 47.4299; in assay [1] (72 h, DMSO = 100, experiment 2), 59.7934; in assay [1] (72 h, DMSO = 100, experiment 3), 55.225. Also, in assay [2] (setting [4]), the “Relative cell viability (ratio to DMSO control), del19/T790M” value was 63.86. Also, the “Relative cell viability (% of DMSO control)” value in assay [2] (72 h, DMSO = 100, experiment 1) was found to be 65.6049; in assay [2] (72 h, DMSO = 100, experiment 2), 64.9663; in assay [2] (72 h, DMSO = 100, experiment 3), 61.0089.
`Nc1ncnc2c1c(-c1cccc(OCc3ccccc3)c1)cn2[C@H]1C[C@@H](CN2CCC2)C1` [AEW541]: the viability at 0.1 µM in assay [3] was determined as 132%; in assay [1] (setting [4]), 105%; in assay [2] (setting [4]), 102%. In addition, the “Relative cell viability (% of DMSO control) in del19 Ba/F3 cells” value in assay [1] (72 h, DMSO = 100, experiment 1) is recorded as 86.142; in assay [1] (72 h, DMSO = 100, experiment 2), 111.013; in assay [1] (72 h, DMSO = 100, experiment 3), 118.474.
For the compound `Cn1cnc2c(F)c(Nc3ccc(Br)cc3Cl)c(C(=O)NOCCO)cc21` [AZD6244], the viability at 0.1 µM in assay [3] came out at 134%; in assay [1] (setting [4]), 50.9%; in assay [2] (setting [4]) it was 109%. The “Relative cell viability (% of DMSO control) in del19 Ba/F3 cells” value in assay [1] (72 h, DMSO = 100, experiment 1) amounted to 44.8792; in assay [1] (72 h, DMSO = 100, experiment 2), 57.317; in assay [1] (72 h, DMSO = 100, experiment 3), 50.3776. Also, the “Relative cell viability (% of DMSO control)” value in assay [2] (72 h, DMSO = 100, experiment 1) is 105.003; in assay [2] (72 h, DMSO = 100, experiment 2), 111.809; in assay [2] (72 h, DMSO = 100, experiment 3), 110.93.
Consider `CCc1cc2c(cc1N1CCC(N3CCOCC3)CC1)C(C)(C)c1[nH]c3cc(C#N)ccc3c1C2=O` [Alectinib, alectinib], for which the figures for the viability at 0.1 µM in assay [3], in assay [1] (setting [4]) and in assay [2] (setting [4]) were 146%, 106% and 115%, respectively. Besides, the “Relative cell viability (% of DMSO control) in del19 Ba/F3 cells” value in assay [1] (72 h, DMSO = 100, experiment 1) is reported as 98.9355; in assay [1] (72 h, DMSO = 100, experiment 2), 105.786; in assay [1] (72 h, DMSO = 100, experiment 3), 113.209. Also, the “Relative cell viability (% of DMSO control)” value turned out to be 98.2015 in assay [2] (72 h, DMSO = 100, experiment 1); 127.038 in assay [2] (72 h, DMSO = 100, experiment 2); 121.189 in assay [2] (72 h, DMSO = 100, experiment 3).
Turning to `COC(=O)c1ccc2c(c1)NC(=O)/C2=C(\Nc1ccc(N(C)C(=O)CN2CCN(C)CC2)cc1)c1ccccc1` [BIBF1120], the results for the viability at 0.1 µM in assay [3], in assay [1] (setting [4]) and in assay [2] (setting [4]) were 108%, 97% and 91.1%, respectively. Further, the “Relative cell viability (% of DMSO control) in del19 Ba/F3 cells” value was found to be 91.4241 in assay [1] (72 h, DMSO = 100, experiment 1); 97.5116 in assay [1] (72 h, DMSO = 100, experiment 2); 102.157 in assay [1] (72 h, DMSO = 100, experiment 3).
In the case of `C[C@]12O[C@H](C[C@]1(O)CO)n1c3ccccc3c3c4c(c5c6ccccc6n2c5c31)CNC4=O` [CEP701], the viability at 0.1 µM in assay [1] was determined as 2.57%; in assay [2], 7.99%.
Regarding `Cc1nc2ccc(-n3ncc(C(=O)c4cc5ccccc5[nH]4)c3N)cc2[nH]1` [CH5183284], the “Relative cell viability (ratio to DMSO control), del19” value in assay [1] (setting [4]) is 111.23 and 111.228. Further, the “Relative cell viability (% of DMSO control) in del19 Ba/F3 cells” value is listed as 100.01 in assay [1] (72 h, DMSO = 100, experiment 1); 123.157 in assay [1] (72 h, DMSO = 100, experiment 2); 110.518 in assay [1] (72 h, DMSO = 100, experiment 3). In addition, the “Relative cell viability (ratio to DMSO control), del19/T790M” value in assay [2] (setting [4]) was 100.76 and 100.762. Further, the “Relative cell viability (% of DMSO control)” value in assay [2] (72 h, DMSO = 100, experiment 1) came out at 87.4669; in assay [2] (72 h, DMSO = 100, experiment 2) it was 110.946; in assay [2] (72 h, DMSO = 100, experiment 3), 103.872.
Consider `COc1cc2nccc(Oc3ccc(NC(=O)NC4CC4)c(Cl)c3)c2cc1C(N)=O` [E7080], for which, in assay [1] (setting [4]), the “Relative cell viability (ratio to DMSO control), del19” value was 104.13 and 104.131. The “Relative cell viability (% of DMSO control) in del19 Ba/F3 cells” value in assay [1] (72 h, DMSO = 100, experiment 1) came to 87.8792; in assay [1] (72 h, DMSO = 100, experiment 2), 107.525; in assay [1] (72 h, DMSO = 100, experiment 3), 116.989. Further, the “Relative cell viability (ratio to DMSO control), del19/T790M” value in assay [2] (setting [4]) was 118.49 and 118.491. Besides, the “Relative cell viability (% of DMSO control)” value was 107.332 in assay [2] (72 h, DMSO = 100, experiment 1); 130.309 in assay [2] (72 h, DMSO = 100, experiment 2); 117.831 in assay [2] (72 h, DMSO = 100, experiment 3).
On to `CO[C@H]1C[C@@H]2CC[C@@H](C)[C@@](O)(O2)C(=O)C(=O)N2CCCC[C@H]2C(=O)O[C@H]([C@H](C)C[C@@H]2CC[C@@H](OCCO)[C@H](OC)C2)CC(=O)[C@H](C)/C=C(\C)[C@@H](O)[C@@H](OC)C(=O)[C@H](C)C[C@H](C)/C=C/C=C/C=C/1C` [Everolimus, everolimus], for which the results for the viability at 0.1 µM in assay [3], in assay [1] (setting [4]) and in assay [2] (setting [4]) were 28%, 29.9% and 33.6%, respectively. Moreover, the “Relative cell viability (% of DMSO control) in del19 Ba/F3 cells” value in assay [1] (72 h, DMSO = 100, experiment 1) came to 25.026; in assay [1] (72 h, DMSO = 100, experiment 2) it was 29.0998; in assay [1] (72 h, DMSO = 100, experiment 3), 35.5918. For the same compound, the “Relative cell viability (% of DMSO control)” value stood at 31.3636 in assay [2] (72 h, DMSO = 100, experiment 1); 39.0956 in assay [2] (72 h, DMSO = 100, experiment 2); 30.3952 in assay [2] (72 h, DMSO = 100, experiment 3).
Regarding `COc1cc2c(Oc3ccc(NC(=O)C4(C(=O)Nc5ccc(F)cc5)CC4)cc3F)ccnc2cc1OCCCN1CCOCC1` [Foretinib, foretinib], the results for the viability at 0.1 µM in assay [3], in assay [1] (setting [4]) and in assay [2] (setting [4]) were 135%, 96.4% and 111%, respectively. Besides, the “Relative cell viability (% of DMSO control) in del19 Ba/F3 cells” value in assay [1] (72 h, DMSO = 100, experiment 1) is 89.6065; in assay [1] (72 h, DMSO = 100, experiment 2) it was 99.5833; in assay [1] (72 h, DMSO = 100, experiment 3) it was 99.8956. Moreover, the “Relative cell viability (% of DMSO control)” value in assay [2] (72 h, DMSO = 100, experiment 1) is recorded as 105.61; in assay [2] (72 h, DMSO = 100, experiment 2), 122.653; in assay [2] (72 h, DMSO = 100, experiment 3), 104.986.
With `Cc1ccc(NC(=O)c2ccc(CN3CCN(C)CC3)cc2)cc1Nc1nccc(-c2cccnc2)n1` [Imatinib, imatinib], in assay [3], the viability at 0.1 µM is 129%.
`CS(=O)(=O)CCNCc1ccc(-c2ccc3ncnc(Nc4ccc(OCc5cccc(F)c5)c(Cl)c4)c3c2)o1` [Lapatinib, lapatinib]: the viability at 0.1 µM was 128% in assay [1] and 102% in assay [2].
Consider `O=C(C(c1ccccc1)c1ccccc1)N1CCN(CC(O)COc2cccc3ncccc23)CC1` (stereo not shown) [MS209], for which the “Relative cell viability (ratio to DMSO control), del19” value in assay [1] (setting [4]) is recorded as 105.44. For the same compound, the “Relative cell viability (% of DMSO control) in del19 Ba/F3 cells” value in assay [1] (72 h, DMSO = 100, experiment 1) amounted to 97.9213; in assay [1] (72 h, DMSO = 100, experiment 2) it was 113.609; in assay [1] (72 h, DMSO = 100, experiment 3) it was 104.789. Also, in assay [2] (setting [4]), the “Relative cell viability (ratio to DMSO control), del19/T790M” value is 109.461. The “Relative cell viability (% of DMSO control)” value came to 106.534 in assay [2] (72 h, DMSO = 100, experiment 1); 123.336 in assay [2] (72 h, DMSO = 100, experiment 2); 98.5141 in assay [2] (72 h, DMSO = 100, experiment 3).

(Values after article PMC5355811 (Nature Communications, 2017).)
